Patent publication US9388120B2, “Nitrogen and hindered phenol containing dual functional macromolecular antioxidants: synthesis, performances and applications” (Polnox Corporation, priority 2005, dated 2016)

Experiments:
[1] = Solubility in Group II lubricant oil base stock; type: physicochemical; conditions: 10 g in 90 g Group II lubricant oil base stock, stirred 15 mins at 60° C.; industry standard 1-2%
Experimental: [drawing 67] 10 g of the antioxidant V was added to 90 g of Group II lubricant oil base stock in a beaker. […] This solubility is much higher than the typical industry standards of 1-2%.

[2] = Oxidative induction time (OIT) by DSC in polyol ester based base stock oil; conditions: antioxidant at 200 ppm in polyester based base stock; DSC at 200° C., oxygen at 20 ml/min
Experimental: (§1) Macromolecules V and A were tested for their performance in lubricant oils and polymers. The macromolecules were mixed in oil with stirring at 60° C. for 5-15 mins at 200 ppm in petroleum based Group II base stock and polyol based Group V base stock oils. The performance of these antioxidants were evaluated in lubricant base oil stocks including Group II using the DSC technique for determining their oxidation induction times measured in minutes (OIT) at 200° C. The OITs of the antioxidants having structures V and A were compared with commercial antioxidants [L57: Ciba's Irganox L57, 6PPD: N-hexyl phenyl-1,4-phenylene diamine CAS #793-24-8)].
The summary of performance of antioxidants I, II, V, X, XVIII and A and their comparison with commercial antioxidants L 57 and 6PPD in synthetic polyol ester based oil is shown in Table 1. The macromolecules were mixed in oil with stirring at 60° C. for 5-15 mins at 200 ppm in petroleum based Group II base stock and polyol based Group V base stock oils.

[3] = Oxidative induction time (OIT) by DSC in Group II lubricating base oil; conditions: 200 ppm; for OIT performance (FIG. 2) compared with commercial antioxidants: GII base oil, DSC at 200° C., versus L57 and 6PPD
Experimental: Macromolecule A was mixed with oil at 60° C. for 5-15 minutes at 200 ppm in petroleum based group II base stock oil and polyol based Group V base stock oils. It was tested using differential scanning calorimetry (DSC). Its Oxidative Induction Time (OIT) was also compared with commercially used antioxidants 2,6-di-tert-butyl-phenol, Naugalube APAN (PANA) and Vanlube 81 (DODP).
as §1

solubility in Group II base stock [1]	Compound	OIT @ 200 ppm [2] [min]	OIT performance (FIG. 2) compared with commercial antioxidants [3]	protection of lubricating oils against oxidation (OIT, FIG. 1) compared with commercial antioxidants ([3]; Group II lubricating oil, DSC, versus 2,6-di-tert-butyl-phenol, Naugalube APAN (PANA), Vanlube 81 (DODP))
homogenous solution	CC(C)CC(C)N(Cc1cc(C(C)(C)C)c(O)c(C(C)(C)C)c1)c1ccc(Nc2ccccc2)cc1 (centres unmarked) [V]	36	superior performance	
	CC(C)CC(C)Nc1ccc(Nc2ccccc2)cc1 (centres unmarked) [Antioxidant 6PPD, N-hexyl phenyl-1,4-phenylene diamine, reference compound]	22		
	Cc1cc(CNc2ccc(Nc3ccccc3)cc2)cc(C(C)(C)C)c1O [X]	28		
	CC(C)(C)c1cc(CNc2ccc(Nc3ccccc3)cc2)c(O)c(C(C)(C)C)c1 [A]	37	superior performance	superior
